# From PubChem BioAssay AID330 (DTP/NCI, 2004)
# Values joined by “and” are separate entries in the source; they are usually repeats but may differ in a detail not shown here. Equal entries are not always repeated. Toxic doses and inconclusive results are not listed.
# Test system: P388 leukemia ip, CD2F1 mice, survival T/C
# Test: NCI In Vivo Anticancer Drug Screen. Data for tumor model P388 Leukemia (intraperitoneal) in CD2F1 (CDF1) mice
# Conditions: endpoint: median survival time, higher = longer survival
# In short: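 Mice carrying the transplanted tumor received test compound or vehicle. Survival was recorded in each group, and the value is the treated-group measurement divided by that of the vehicle-treated control group.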
# [1] = dose: 50.0 mg/kg/injection, schedule: Q01DX009 (ip), vehicle: saline with Tween-80
# [2] = dose: 50.0 mg/kg/injection, schedule: Q01DX009 (ip), vehicle: saline
# [3] = dose: 25.0 mg/kg/injection, schedule: Q01DX009 (ip), vehicle: Klucel (hydroxypropylcellulose) (HPC)
# [4] = dose: 50.0 mg/kg/injection, schedule: Q01DX009 (ip), vehicle: Klucel (hydroxypropylcellulose) (HPC)
# [5] = dose: 100.0 mg/kg/injection, schedule: Q01DX009 (ip), vehicle: Klucel (hydroxypropylcellulose) (HPC)
# [6] = dose: 200.0 mg/kg/injection, schedule: Q01DX009 (ip), vehicle: Klucel (hydroxypropylcellulose) (HPC)
# [7] = dose: 100.0 mg/kg/injection, schedule: Q01DX009 (ip), vehicle: saline
# [8] = dose: 50.0 mg/kg/injection, schedule: Q04DX003 (ip), vehicle: saline with Tween-80
# [9] = dose: 100.0 mg/kg/injection, schedule: Q04DX003 (ip), vehicle: saline with Tween-80
# [10] = dose: 200.0 mg/kg/injection, schedule: Q04DX003 (ip), vehicle: saline with Tween-80
# [11] = dose: 50.0 mg/kg/injection, schedule: Q01DX005 (ip), vehicle: saline with Tween-80
# [12] = dose: 200.0 mg/kg/injection, schedule: Q01DX009 (ip), vehicle: saline
smiles,measurement,setting,value
C/C=C1/CC2C=Nc3cc(O)c(OC)cc3C(=O)N2C1 (stereo not drawn),T/C,"dose: 1.0 mg/kg/injection, schedule: Q01DX005 (ip), vehicle: saline + alcohol",157 % of control
same,T/C,"dose: 50.0 micrograms/kg/injection, schedule: Q01DX005 (ip), vehicle: saline + alcohol",98 % of control
same,T/C,"dose: 100.0 micrograms/kg/injection, schedule: Q01DX005 (ip), vehicle: saline + alcohol",110 % of control
same,T/C,"dose: 200.0 micrograms/kg/injection, schedule: Q01DX005 (ip), vehicle: saline + alcohol",116 % of control
same,T/C,"dose: 400.0 micrograms/kg/injection, schedule: Q01DX005 (ip), vehicle: saline + alcohol",120 % of control
CCCCc1c(C(=O)OCC)oc(C(=O)OCC)c(CCCC)c1=O,T/C,"dose: 12.5 mg/kg/injection, schedule: Q04DX003 (ip), vehicle: Klucel (hydroxypropylcellulose) (HPC)",108 % of control
same,T/C,"dose: 25.0 mg/kg/injection, schedule: Q04DX003 (ip), vehicle: Klucel (hydroxypropylcellulose) (HPC)",104 % of control
same,T/C,"dose: 50.0 mg/kg/injection, schedule: Q04DX003 (ip), vehicle: Klucel (hydroxypropylcellulose) (HPC)",103 % of control
same,T/C,"dose: 100.0 mg/kg/injection, schedule: Q04DX003 (ip), vehicle: Klucel (hydroxypropylcellulose) (HPC)",100 % of control
same,T/C,"dose: 200.0 mg/kg/injection, schedule: Q04DX003 (ip), vehicle: Klucel (hydroxypropylcellulose) (HPC)",104 % of control
same,T/C,"dose: 400.0 mg/kg/injection, schedule: Q04DX003 (ip), vehicle: Klucel (hydroxypropylcellulose) (HPC)",106 % of control
CC(=O)OC1CC2CCCCC2CC1[N+](C)(C)C (stereo not drawn),T/C,"dose: 12.5 mg/kg/injection, schedule: Q01DX009 (ip), vehicle: saline with Tween-80",108 % of control
same,T/C,"dose: 25.0 mg/kg/injection, schedule: Q01DX009 (ip), vehicle: saline with Tween-80",112 % of control
same,T/C,[1],103 % of control and 94 % of control
same,T/C,[2],105 % of control
COC1/C=C/OC2(C)Oc3c(C)c(O)c4c(c3C2=O)C(N)=C(Nc2ccccc2)C(=NC(=O)C(C)=CC=CC(C)C(O)C(C)C(O)C(C)C(OC(C)=O)C1C)C4=O (stereo not drawn),T/C,[3],97 % of control
same,T/C,[4],94 % of control
same,T/C,[5],98 % of control
same,T/C,[6],86 % of control
Cc1noc(C)c1-c1onc2ccc(Cl)cc12,T/C,[5],96 % of control
same,T/C,[6],96 % of control
Cc1nc(N)c2[nH]cnc2n1,T/C,"dose: 50.0 mg/kg/injection, schedule: Q01DX005 (ip), vehicle: Klucel (hydroxypropylcellulose) (HPC)",99 % of control
same,T/C,"dose: 100.0 mg/kg/injection, schedule: Q01DX005 (ip), vehicle: Klucel (hydroxypropylcellulose) (HPC)",100 % of control
same,T/C,"dose: 200.0 mg/kg/injection, schedule: Q01DX005 (ip), vehicle: Klucel (hydroxypropylcellulose) (HPC)",99 % of control
CC1=Nc2ccc(C)cc2N=C(C)C1,T/C,[2],86 % of control
same,T/C,[7],91 % of control
CN1C(Sc2ccccc2)=NN(c2ccccc2)CN1c1ccccc1,T/C,[8],93 % of control
same,T/C,[9],97 % of control
same,T/C,[10],88 % of control
O=C1NC(=O)C2(CC3CCCCC3CC2c2ccccc2)N1 (stereo not drawn),T/C,[9],89 % of control
same,T/C,[10],91 % of control
same,T/C,"dose: 400.0 mg/kg/injection, schedule: Q04DX003 (ip), vehicle: saline with Tween-80",100 % of control
COc1ccc(CNC(=O)C#CCOC2CCCCO2)cc1 (stereo not drawn),T/C,"dose: 12.5 mg/kg/injection, schedule: Q01DX005 (ip), vehicle: saline with Tween-80",91 % of control
same,T/C,"dose: 25.0 mg/kg/injection, schedule: Q01DX005 (ip), vehicle: saline with Tween-80",90 % of control
same,T/C,[11],86 % of control
same,T/C,"dose: 200.0 mg/kg/injection, schedule: Q01DX005 (ip), vehicle: saline with Tween-80",86 % of control
CCCCCCCCCN1CCS(=O)(=O)CC1,T/C,[4],94 % of control
same,T/C,[5],98 % of control
same,T/C,[6],103 % of control
Cc1cc(OC(=O)c2c(-c3c(Cl)cccc3Cl)noc2C)n(-c2ccc(NC(=O)c3c(-c4c(Cl)cccc4Cl)noc3C)cc2)n1,T/C,[2],93 % of control
same,T/C,[7],89 % of control
same,T/C,[12],88 % of control
CCN(CC)Cc1c(C)nc2ccc(N(C)C)cc2c1Cl,T/C,"dose: 12.5 mg/kg/injection, schedule: Q01DX009 (ip), vehicle: Klucel (hydroxypropylcellulose) (HPC)",115 % of control
same,T/C,[3],110 % of control
same,T/C,[4],100 % of control and 96 % of control
C1CN(P2(N3CC3)=NP(N3CC3)(N3CC3)=NP(N3CC3)(N3CC3)=N2)CCO1 (stereo not drawn),T/C,"dose: 3.13 mg/kg/injection, schedule: Q01DX009 (ip), vehicle: saline",123 % of control
same,T/C,"dose: 4.0 mg/kg/injection, schedule: Q01DX009 (ip), vehicle: saline",161 % of control
same,T/C,"dose: 6.25 mg/kg/injection, schedule: Q01DX009 (ip), vehicle: saline",157 % of control
same,T/C,"dose: 8.0 mg/kg/injection, schedule: Q01DX009 (ip), vehicle: saline",212 % of control
same,T/C,"dose: 12.5 mg/kg/injection, schedule: Q01DX009 (ip), vehicle: saline",183 % of control
same,T/C,"dose: 16.0 mg/kg/injection, schedule: Q01DX009 (ip), vehicle: saline",174 % of control
same,T/C,"dose: 25.0 mg/kg/injection, schedule: Q01DX009 (ip), vehicle: saline",215 % of control
same,T/C,"dose: 32.0 mg/kg/injection, schedule: Q01DX009 (ip), vehicle: saline",235 % of control
same,T/C,[2],104 % of control
same,T/C,"dose: 64.0 mg/kg/injection, schedule: Q01DX009 (ip), vehicle: saline",108 % of control
same,T/C,[7],86 % of control
Cc1cc(N2C(=O)CCSC2=S)c([N+](=O)[O-])cc1C,T/C,"dose: 50.0 mg/kg/injection, schedule: Q01DX009 (ip), vehicle: suspension in saline",98 % of control
same,T/C,"dose: 100.0 mg/kg/injection, schedule: Q01DX009 (ip), vehicle: suspension in saline",91 % of control
same,T/C,"dose: 200.0 mg/kg/injection, schedule: Q01DX009 (ip), vehicle: suspension in saline",94 % of control
CCCCOC(=O)C(NC(N)=O)SC (stereo not drawn),T/C,[8],95 % of control
same,T/C,[9],100 % of control
same,T/C,[10],99 % of control
CCN(CC)Cc1cc(Nc2c3ccccc3nc3cc(Cl)ccc23)ccc1O,T/C,"dose: 33.0 mg/kg/injection, schedule: Q01DX009 (ip), vehicle: saline",100 % of control
same,T/C,[2],109 % of control
same,T/C,"dose: 75.0 mg/kg/injection, schedule: Q01DX009 (ip), vehicle: saline",122 % of control
Cc1ccc2cccc(OC(=O)c3cccnc3Oc3ccccc3)c2n1,T/C,[1],91 % of control
same,T/C,"dose: 100.0 mg/kg/injection, schedule: Q01DX009 (ip), vehicle: saline with Tween-80",90 % of control
same,T/C,"dose: 200.0 mg/kg/injection, schedule: Q01DX009 (ip), vehicle: saline with Tween-80",90 % of control
CC1=CC(=O)c2c(O)cccc2C1=O,T/C,"dose: 2.0 mg/kg/injection, schedule: Q01DX009 (ip), vehicle: Klucel (hydroxypropylcellulose) (HPC)",108 % of control
same,T/C,"dose: 2.0 mg/kg/injection, schedule: Q01DX009 (ip), vehicle: saline with Tween-80",110 % of control
same,T/C,"dose: 4.0 mg/kg/injection, schedule: Q01DX009 (ip), vehicle: Klucel (hydroxypropylcellulose) (HPC)",113 % of control and 116 % of control
same,T/C,"dose: 4.0 mg/kg/injection, schedule: Q01DX009 (ip), vehicle: saline with Tween-80",114 % of control
same,T/C,"dose: 8.0 mg/kg/injection, schedule: Q01DX009 (ip), vehicle: Klucel (hydroxypropylcellulose) (HPC)",122 % of control
CN1OC2(CCCCC2)n2c(=O)c3ccccc3c(=O)n2C1c1ccccc1 (stereo not drawn),T/C,[2],100 % of control
same,T/C,[7],100 % of control
same,T/C,[12],95 % of control
[Cl][Sn]1([Cl])[CH2]CCCCCC[CH2][Sn]([Cl])([Cl])[CH2]CCCCCC[CH2]1,T/C,[11],92 % of control
same,T/C,"dose: 100.0 mg/kg/injection, schedule: Q01DX005 (ip), vehicle: saline with Tween-80",92 % of control
N#Cc1ccc2c(ccc3ncccc32)n1,T/C,"dose: 25.0 mg/kg/injection, schedule: Q04DX002 (ip), vehicle: saline with Tween-80",100 % of control
same,T/C,"dose: 50.0 mg/kg/injection, schedule: Q04DX002 (ip), vehicle: saline with Tween-80",100 % of control
same,T/C,"dose: 100.0 mg/kg/injection, schedule: Q04DX002 (ip), vehicle: saline with Tween-80",101 % of control
CN1C(=S)C2(C1c1ccccc1)C(C)(C)CCCC2(C)C (stereo not drawn),T/C,"dose: 100.0 mg/kg/injection, schedule: Q01DX001 (ip), vehicle: saline with Tween-80",92 % of control
same,T/C,"dose: 200.0 mg/kg/injection, schedule: Q01DX001 (ip), vehicle: saline with Tween-80",92 % of control
same,T/C,"dose: 400.0 mg/kg/injection, schedule: Q01DX001 (ip), vehicle: saline with Tween-80",87 % of control
CC(Cc1ccc(O)c(O)c1)C(C)Cc1ccc(O)c(O)c1 (stereo not drawn),T/C,[7],98 % of control and 106 % of control
same,T/C,[12],101 % of control and 102 % of control
same,T/C,"dose: 400.0 mg/kg/injection, schedule: Q01DX009 (ip), vehicle: saline",105 % of control and 94 % of control
same,T/C,"dose: 600.0 mg/kg/injection, schedule: Q01DX009 (ip), vehicle: saline",98 % of control and 90 % of control
